Data set [1] in a line: Stability study of bulk material, stability-indicating HPLC. It is filed as physicochemical. The protocol:
Changes are monitored using a stability-indicating HPLC method. Results were calculated by normalized peak area (npa). Degradants are identified by comparison of their relative retention times against impurity standards.

For another data set, the system named is serotonin uptake. To be noted: background statement; cited from earlier work.
The test system of a further data set is norepinephrine uptake. Particulars: background statement; cited from earlier work.

Take “(1-[2-(dimethylamino)-1-(4-phenol)ethyl]-cyclohexanol succinate [Form V]”: in data set [1] (elevated temperatures and humidity (40° C./75%)), the “polymorph and chemical stability demonstrated” value amounted to 2 months. In addition, the “polymorph stability and formation of known and unknown degradants” value in data set [1] (stored for over 3 to 6 months under normal conditions of temperature and humidity) is “stable”.
Turning to `CN(C)CC(c1ccc(O)cc1)C1(O)CCCCC1` (stereo not shown) [O-desmethyl venlafaxine], the serotonin uptake entry in the data set on serotonin uptake was “inhibit”. Besides, in the data set with norepinephrine uptake, the norepinephrine uptake entry is “inhibit”.

The record behind these values is patent US7820716B2 (Mai De Ltd, priority 2007, dated 2010).
